Tested on: C57BL/6 male mice
Experiment: In vivo delivery study of lipid nucleic acid mixture (oral gavage, RT-qPCR of PGY-sRNA-26 in tissues)
Set-up: species or system mouse
Details: for oral delivery of single-stranded sRNA nucleic acids into mouse blood / oral delivery of single-stranded sRNA nucleic acids into mouse brain tissue / oral delivery of single-stranded sRNA nucleic acids into mouse femur / oral delivery of single-stranded sRNA nucleic acids into mouse heart tissue / oral delivery of single-stranded sRNA nucleic acids into mouse intestinal tissue / oral delivery of single-stranded sRNA nucleic acids into mouse kidney tissue / oral delivery of single-stranded sRNA nucleic acids into mouse liver tissue / oral delivery of single-stranded sRNA nucleic acids into mouse lung tissue / oral delivery of single-stranded sRNA nucleic acids into mouse pancreatic tissue / oral delivery of single-stranded sRNA nucleic acids into mouse spleen tissue / oral delivery of single-stranded sRNA nucleic acids into mouse stomach tissue: 100 μg lipid:10 nmol PGY-sRNA-26, sampled after 12 hours; for oral delivery of single-stranded sRNA nucleic acids into mouse heart tissue: vs free uptake group; for oral delivery of single-stranded sRNA nucleic acids into mouse intestinal tissue: intestine; for oral delivery of single-stranded sRNA nucleic acids into mouse pancreatic tissue: pancreas; for overall delivery efficacy: delivering nucleic acids into each tissue and blood tested: 100 μg lipid:10 nmol PGY-sRNA-26, all tissues and blood tested
Method in brief: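 Stem-loop RT and SYBR qPCR, normalized to U6, measured PGY-sRNA-26 in blood and organs 12 h after gavage. Dosing was 10 nmol sRNA with 100 μg lipid, pre-mixed and heated 15 min at 90 °C, in 12-h-fasted mice, against saline and free-sRNA groups.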

Structure (SMILES)	oral delivery of single-stranded sRNA nucleic acids into mouse blood	oral delivery of single-stranded sRNA nucleic acids into mouse brain tissue	oral delivery of single-stranded sRNA nucleic acids into mouse femur	oral delivery of single-stranded sRNA nucleic acids into mouse heart tissue	oral delivery of single-stranded sRNA nucleic acids into mouse intestinal tissue	oral delivery of single-stranded sRNA nucleic acids into mouse kidney tissue	oral delivery of single-stranded sRNA nucleic acids into mouse liver tissue	oral delivery of single-stranded sRNA nucleic acids into mouse lung tissue	oral delivery of single-stranded sRNA nucleic acids into mouse pancreatic tissue	oral delivery of single-stranded sRNA nucleic acids into mouse spleen tissue	oral delivery of single-stranded sRNA nucleic acids into mouse stomach tissue	overall delivery efficacy: delivering nucleic acids into each tissue and blood tested
CCCCC/C=C\C/C=C\CCCCCCCCOC(=O)CCCCCCCCCCCCCCC [Lipid 804, [(9Z,12Z)-octadeca-9,12-dienyl] hexadecanoate]	can effectively orally deliver	can effectively orally deliver	can effectively orally deliver	can effectively orally deliver	can effectively orally deliver	can effectively orally deliver	can effectively orally deliver	can effectively orally deliver	can effectively orally deliver	can effectively orally deliver	can effectively orally deliver	–
CCCCCCCCCCCCCCCC=O [Lipid 602]	can effectively orally deliver	can effectively orally deliver	can effectively orally deliver	can effectively orally deliver	can effectively orally deliver	can effectively orally deliver	can effectively orally deliver	can effectively orally deliver	–	can effectively orally deliver	can effectively orally deliver	best delivery efficacy
O=C(O)C/C=C/CC(=O)O [Lipid 607, (E)-hex-3-enedioic acid]	can effectively orally deliver	–	can effectively orally deliver	can effectively orally deliver	–	can effectively orally deliver	can effectively orally deliver	–	–	–	can effectively orally deliver	–
CCCCCCCCCC(N)=O [Lipid 573, Decanamide]	can effectively orally deliver	can effectively orally deliver	can effectively orally deliver	can effectively orally deliver	can effectively orally deliver	–	can effectively orally deliver	–	–	can effectively orally deliver	can effectively orally deliver	–
CCCCCCCCCC=O [Lipid 615]	can effectively orally deliver	can effectively orally deliver	can effectively orally deliver	–	can effectively orally deliver	–	can effectively orally deliver	can effectively orally deliver	–	can effectively orally deliver	can effectively orally deliver	–
CCCCC/C=C\C/C=C\C/C=C\C/C=C\CCCC(=O)NCCN(CC)CC [Lipid 810, (5Z,8Z,11Z,14Z)-N-[2-(diethylamino)ethyl]icosa-5,8,11,14-tetraenamide]	can effectively orally deliver	can effectively orally deliver	can effectively orally deliver	can effectively orally deliver	can effectively orally deliver	can effectively orally deliver	can effectively orally deliver	can effectively orally deliver	can effectively orally deliver	can effectively orally deliver	can effectively orally deliver	best delivery efficacy
CC=CC(C)=O [Lipid 621]	can effectively orally deliver	can effectively orally deliver	can effectively orally deliver	can effectively orally deliver	can effectively orally deliver	–	can effectively orally deliver	can effectively orally deliver	–	–	can effectively orally deliver	–
CC(=O)CCC=C(C)CCC=C(C)C [Lipid 502, 6,10-dimethylundeca-5,9-dien-2-one]	can effectively orally deliver	can effectively orally deliver	–	can effectively orally deliver	can effectively orally deliver	can effectively orally deliver	–	–	–	can effectively orally deliver	can effectively orally deliver	–
CCCCC/C=C\C/C=C\CCCCCCCCOC(=O)CCCCCCCCCCCCCCCCCCC [Lipid 812, [(9Z,12Z)-octadeca-9,12-dienyl] icosanoate]	can effectively orally deliver	can effectively orally deliver	can effectively orally deliver	can effectively orally deliver	can effectively orally deliver	can effectively orally deliver	can effectively orally deliver	can effectively orally deliver	can effectively orally deliver	can effectively orally deliver	can effectively orally deliver	–
CC/C=C\CCOC(=O)[C@H](O)C(C)C [Lipid 816, [(Z)-hex-3-enyl] (2R)-2-hydroxy-3-methylbutanoate]	can effectively orally deliver	can effectively orally deliver	can effectively orally deliver	can effectively orally deliver	can effectively orally deliver	can effectively orally deliver	can effectively orally deliver	can effectively orally deliver	can effectively orally deliver	can effectively orally deliver	can effectively orally deliver	–
CCCCCCCCCCCCCCCC(N)=O [Lipid 599, hexadecanamide]	can effectively orally deliver	can effectively orally deliver	can effectively orally deliver	can effectively orally deliver	can effectively orally deliver	can effectively orally deliver	can effectively orally deliver	can effectively orally deliver	–	can effectively orally deliver	can effectively orally deliver	best delivery efficacy
